According to PubChem BioAssay (NCI):
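Results reflect a 48-hour exposure of cells in 96-well plates to compound at five concentrations. At the GI50, growth is halved. TGI: total growth inhibition.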

What was measured:
Experiment in all cases: NCI tumour cell line growth inhibition, 48 h
[1] = tested on: DLD-1 colon
[2] = tested on: SN12C renal
[3] = tested on: RPMI-8226 leukemia
[4] = tested on: NCI-H23 lung
[5] = tested on: SK-MEL-5 melanoma
[6] = tested on: NCI-H522 lung
[7] = tested on: SNB-78 CNS
[8] = tested on: HL-60(TB) leukemia
[9] = tested on: MDA-MB-231 breast
[10] = tested on: HS 578T breast

| SMILES | TGI [1] [µM] | TGI [2] [µM] | TGI [3] [µM] | TGI [4] [µM] | TGI [5] [µM] | TGI [6] [µM] | TGI [7] [µM] | TGI [8] [µM] | GI50 [1] [µM] | GI50 [2] [µM] | GI50 [3] [nM] | GI50 [4] [µM] | GI50 [5] [nM] | GI50 [8] [nM] | GI50 [7] [µM] | GI50 [9] [nM] | TGI [9] [µM] | GI50 [6] [nM] | GI50 [10] [nM] | TGI [10] [µM] |
| --- | --- | --- | --- | --- | --- | --- | --- | --- | --- | --- | --- | --- | --- | --- | --- | --- | --- | --- | --- | --- |
| CC12CC3(C)CC(C)(C1)CC(N=[N+]=[N-])(C2)C3 | > 100 | > 100 | > 100 | > 100 | > 100 | > 100 | > 100 |  |  |  |  |  |  |  |  |  |  |  |  |  |
| O=[N+]([O-])c1ccc(N=Nc2c(O)[nH]c3ccc([N+](=O)[O-])cc23)cc1 | > 100 |  | 36.2 | 44.9 | 26.7 | 50.4 |  |  |  |  |  |  |  |  |  |  |  |  |  |  |
| Cc1cc([N+](=O)[O-])c(C)c2c1[nH]c1ccc(/C(CCC3CCCC3)=N\N)cc12 |  | 29.7 | 62.2 | 32.7 | 37.7 | 35 | > 100 |  |  |  |  |  |  |  |  |  |  |  |  |  |
| Cc1cc(Cl)ccc1NC(=O)C(=O)Cc1nc2ccc(C(=O)c3ccccc3)cc2[nH]c1=O | > 100 | > 100 |  | > 100 | > 100 | > 100 |  | > 100 |  |  |  |  |  |  |  |  |  |  |  |  |
| CC[O-].CC[O-].O=C1C(=C([O-])c2ccccc2)C(=O)c2ccccc21.O=C1C(=C([O-])c2ccccc2)C(=O)c2ccccc21.[Ti+4] | > 100 | 99 | > 100 | > 100 | > 100 |  | > 100 | > 100 | 93.2 | 26.6 | 42500 | 92.3 | > 100000 | > 100000 | > 100 |  |  |  |  |  |
| CC(C)c1cccc(C(C)C)c1NC(=O)C(=O)C(C(=O)c1ccccc1-c1ccccc1)C1OC(=O)c2ccccc21 (stereo not drawn) |  | 49.9 | > 100 | 3.32 | 29.5 | 30.5 | 73.2 |  |  |  |  |  |  |  |  |  |  |  |  |  |
| Cc1c(C)c2cc3c(=O)ccoc3c(C)c2oc1=O |  | > 100 | > 100 | > 100 | > 100 | > 100 | > 100 | > 100 |  |  |  |  |  |  |  |  |  |  |  |  |
| Cc1cc(O)c2c(c1)C(O)(c1ccc3c(c1O)C(=O)c1c(O)cc(C)cc1C3(O)C1OC(CO)C(O)C(O)C1O)c1cccc(O)c1C2=O (stereo not drawn) | 23.7 |  | > 100 | 31.2 | 33 |  | 36.1 | 46.8 |  |  |  |  |  |  |  |  |  |  |  |  |
| O=C(CCc1nc(=S)[nH][nH]1)NC12CC3CC(CC(C3)C1)C2 | > 100 | > 100 |  | > 100 | > 100 | > 100 | > 100 | > 100 |  |  |  |  |  |  |  |  |  |  |  |  |
| COc1ccc(C2C(Cl)C(=O)N2n2cnc3ccccc3c2=O)cc1OC (stereo not drawn) |  | > 100 | > 100 | > 100 | > 100 | > 100 | > 100 | > 100 |  |  |  |  |  |  |  |  |  |  |  |  |
| COc1ccc(Cl)cc1Nc1nc(C(F)(F)F)ccc1C(=O)NN |  | > 100 | 13.3 | > 49.5 | > 20.4 | > 100 |  | 18.6 |  | 11.4 | 1910 | 9.11 | 5800 | 2750 |  | 4580 | > 100 | 4090 | 12300 | > 100 |
| Cc1cc(N(CCNc2ccnc3cc(Cl)ccc23)Cc2ccc3c(c2)OCO3)nc(N2CCN(C)CC2)n1 |  | 14.2 | 5.23 | 22.3 | 3.25 | 3.81 |  | 4.27 |  | 3.77 | 1880 | 6.39 | 1790 | 2060 |  | 1770 | 4.32 | 1850 | 1870 | 5.2 |
| CCOC(=O)c1c(NC(=O)c2ccc(C(C)C)cc2)sc2c(CN(C)C)c(O)ccc12 |  | 17.9 | 4.6 | 13.3 | 3.11 | 4.53 |  | 4.2 |  | 4.53 | 1840 | 3.22 | 1730 | 1770 |  | 1950 | 3.83 | 2010 | 2010 | 4.37 |
| CC[C@H](C)[C@H](NC(=O)c1cnccn1)C(=O)N(C)[C@H](C[C@@H](OC(C)=O)c1nc(C(=O)N[C@@H](Cc2ccccc2)C[C@H](C)C(=O)OC)cs1)C(C)C |  | > 33.3 | > 33.3 | > 33.3 | 2.87 | 2.49 |  | 2.24 |  | 2.22 | 1070 | 1.69 | 809 | 900 |  | 1390 | 19.6 | 55.2 | 941 | 10.6 |
| C/C(=N/N(C=O)C[n+]1ccccc1)C(CN(CC(C)C)CC(C)C)C(=O)Nc1ccc(C)cc1C (stereo not drawn) | > 100 | > 100 | > 100 | > 100 | > 100 | > 100 |  | > 100 |  |  |  |  |  |  |  |  |  |  |  |  |
| Cc1cccc(NC(=O)c2sc3nc4c(cc3c2N)CCCC4)c1C |  | > 100 | > 100 | > 100 | > 100 | > 100 |  | 0.941 |  | 0.61 | 354 | 0.519 | 399 | 266 |  | 1600 | > 100 | 269 | 351 | > 100 |
| C/C(=N\O)c1ccc(Nc2cc(-n3nnc4ccccc43)nc3ccccc23)cc1 |  | 14.2 | 12.8 | > 29.5 | 16.6 | 22.8 |  | 45.7 |  | 4.67 | 3190 | 8.98 | 5570 | 10600 |  | 2530 | 9.37 | 6390 | 6290 | 20.4 |
| COC(=O)C1=CCON(c2ccccc2)C1c1ccccc1 (stereo not drawn) | > 100 |  | > 100 | > 100 |  | 93.8 |  | 61.7 |  |  |  |  |  |  |  |  |  |  |  |  |
| Fc1cccc(COc2ccc(Nc3ncnc4sc(-c5ccco5)cc34)cc2Cl)c1 |  | > 25 | > 25 | > 25 | > 25 | > 25 |  | > 25 |  | > 25 | > 25000 | > 25 | > 25000 | > 25000 |  | > 25000 | > 25 | > 25000 | > 25000 | > 25 |
| Nc1cc2c3c(cccc3c1)NC2=O |  | > 100 | > 100 | > 100 | > 100 | 74 |  | > 100 |  |  |  |  |  |  |  |  | > 100 |  |  | > 100 |
